Results reported in patent US6306899A (priority 1999, dated 2001).
In brackets after ≈: the same amount, converted by molar mass. Entries after “also recorded” stand apart in the source; their conditions may differ.

Experiments:
3TC resistant HBV (DM2) = test: Activity against 3TC resistant HBV (DM2, L526MM550V) in transfected HepG2 cells; type: cell-based, Hepatitis B virus; conditions: in words; for effect on 3TC resistant HBV: DM2, HepG2, 9 days
WT10 = test: Activity against wild-type HBV (WT10) in transfected HepG2 cells; type: cell-based, Hepatitis B virus; conditions: in words
HBV [1] = conditions: background; in words; cited from earlier work
HBsAg = test: microbe, parasite or virus in culture; type: cell-based, Hepatitis B virus
HBV [2] = test: microbe, parasite or virus in culture; type: cell-based, Hepatitis B virus; conditions: for inhibition of HBV replication / DNA level: in words
Yellow Fever virus = test: microbe, parasite or virus in culture; type: cell-based
[3] = Cytotoxicity, HepG2 cell growth; type: cell-based; conditions: human, hepg2 cells; 3 days; read-out: Cytotoxicity (IC50) HepG2 cell
Method: (§1) To determine the cellular toxicity of the present compounds, the T-lymphoblastoic cell line (CEM) and the HEP-G2 cell line (parent cell line from which 2.2.15 cell line is produced) were used. Cells were subjected to varying concentrations of the drug(s) and cell numbers were determined 3 days post treatment by the method described by Chen, C-H and Cheng, Y-C, J. Biol. Chem., 264, 11934 (1989). Concentrations of the drug which would result in inhibition of cell growth were determined from the plot generated by representing cell numbers corresponding to the individual drug concentrations.

[4] = Cytotoxicity, CEM cell growth; type: cell-based; conditions: human, cem cells; 3 days; read-out: Cytotoxicity (IC50) CEM cell
Method: as §1

[5] = Solubility: saturated solution in PBS at room temperature; type: physicochemical; conditions: aqueous buffer
From the text: 3. The symbol "*" denotes the concentration of the saturated solution in
PBS at room temperature.

HBsAg in HepA2 cells = test: Suppression of HBsAg secretion in HepA2 cells, serum-free, 2 days; type: cell-based; conditions: Homo sapiens, HepA2, 48 h, read-out: EC50 HepA2 (50% reduction of HBsAg secretion)
From the text: (§2) Biological testing results of Helioxanthin and
(§3) its derivatives for suppression of HBsAg
(§4) in HepA2 and Hep3B cells in serum-free condition for 2 days
The symbol, "*" denotes HepA2, HBV DNA stable transfected HBV dimer DNA.
(§5) The symbol, "**" denotes EC50, the concentration of tested compounds
(§6) which exerted 50% reduction of HBsAg secretion in human hepatoma cells.

HBsAg in Hep3B cells = test: Suppression of HBsAg secretion in Hep3B cells, serum-free, 2 days; type: cell-based; conditions: Homo sapiens, 48 h, read-out: EC50 Hep3B (50% reduction of HBsAg secretion)
From the text: as §2, §3, §4, §5, §6

HBV RNA = HBV RNA level (Northern analysis); type: cell-based, Hepatitis B virus; conditions: in words
Method: The biological activity of the present compounds was assessed as described by Doong, S-L, et al., Proc. Natl. Acad. Sci. U.S.A 88, 8495-8499 (1991). The human hepatoma cell line carrying HBV (cell line designated 2.2.15) provided by Dr. G. Aces was used in the study. Price, et al., Proc. Natl. Acad. Sci. U.S.A. 86, 8541 (1989). Briefly, six day-old cultures were treated with varying concentrations of the drug in the culture medium (Minimum essential medium with Earl's salts and 10% fetal bovine serum). The drug was left in the culture medium for a period of 3 days after which period the medium was aspirated and fresh medium containing the same concentration(s) of the drug was added. […] Inhibition of the viral replication was determined by the comparison of the viral DNA from drug-treated versus control cultures not treated with the drug. In addition, supernatant obtained from the polyethylene glycol precipitation of the cell culture medium (above) was measured for the presence of two HBV antigens (HBsAg and HBeAg) using enzyme immunoassay kits from Abbott Laboratories, Inc. [HBs (rDNA) EIA and HBe (rDNA)EIA], pursuant to standard practice (FIG. 3A). RNA levels were determed using Northern analysis with cellular albumin RNA being measured as a load control to standardize the quality of the HBV RNA measurement (FIG. 3B).

SMILES	sensitivity of HBV DNA production of DM2 to 3TC (3TC resistant HBV (DM2); DM2)	sensitivity of HBV DNA production of WT10 to 3TC (WT10)	effect on HBV infection (HBV [1])	EC50 (HBsAg; Hepatitis B virus, 144 h, read-out: Anti-viral activity (ED50) HbsAg) [µM]	HbsAg expression inhibition (HBsAg; in words)	EC50 (HBV [2]; Hepatitis B virus, 144 h) [µM]	inhibition of HBV replication / DNA level (HBV [2])	inhibition of HBV replication / DNA level (HBV [2]; listed as helioxanthin)	EC50 (Yellow Fever virus; Yellow fever virus, BHK, 144 h, read-out: Anti-viral activity (ED50) YFV, plaque reduction, BHK cells, 6 days) [µM]	activity against the Yellow fever virus (Yellow Fever virus; in words)	CC50 at 72 h [3] [µM]	CC50 at 72 h [4] [µM]	solubility [5] [µM]	EC50 (HBsAg in HepA2 cells) [µM]	EC50 (HBsAg in Hep3B cells) [µM]	HBV RNA level (HBV RNA)	HBV RNA level (HBV RNA; listed as helioxanthin)	effect on 3TC resistant HBV (3TC resistant HBV (DM2))	effect on 3TC resistant HBV (3TC resistant HBV (DM2); listed as helioxanthin)
Nc1ccn([C@@H]2CS[C@H](CO)O2)c(=O)n1 [Compound 3TC]	resistant	sensitive	recurrence of HBV after a period of treatment																
O=C1OCc2c1cc1ccc3c(c1c2-c1ccc2c(c1)OCO2)OCO3 [Compound 145, 7,8-methylenedioxy-1-(3',4'-methylenedioxyphenyl)-2-hydroxymethylnaphthalene-3-carboxylic acid lactone]				4	inhibit HBV replication and HbsAg expression	1	selectively inhibited HBV replication; also recorded: decreased the RNA and DNA level; also recorded: the most active compound in the series tested; also recorded: inhibit HBV replication in cell culture	selectively inhibited HBV replication	9.5	demonstrated activity against the Yellow fever virus	26	22	24.7 (≈ 8.6 µg/mL)	0.25	0.025	decreased the RNA and DNA level; also recorded: decrease the RNA level of HBV	decreased the RNA level	excellent anti-HBV activity even in 3TC (L(-)SddC) resistant HBV	stronger inhibition of viral replication of strains of HBV that have become resistant to 3TC
